Experimental data taken from patent publication US20250163048A1 (Tango Therapeutics, Inc., priority 2022, published 2025).

What was measured:
[1] = tested on: HAP1 MTAP-deleted cell line; test: SDMA in-cell western assay, HAP1 MTAP-deleted; details: for IC50 / IC90: Homo sapiens; for IC50: HAP1, read-out: Hap1 MTAP deleted IC50, SDMA in-cell western, HAP1 MTAP-deleted cell line; for IC90: HAP1, read-out: Hap1 MTAP deleted IC90, SDMA in-cell western, HAP1 MTAP-deleted cell line; for Hap1 MTAP intact/deleted ratio: IC50 ratio between HAP1 MTAP-intact and HAP1 MTAP-deleted cell line, SDMA in-cell western
[2] = tested on: HAP1 MTAP-intact cell line; test: SDMA in-cell western assay, HAP1 MTAP-intact; details: Homo sapiens, HAP1, read-out: Hap1 MTAP intact IC50, SDMA in-cell western, HAP1 MTAP-intact cell line
MTAP-deleted cell line = test: viability assay for the MTAP-deleted cell line; format: cell-based; details: Homo sapiens, HAP1, viability assay

Compound | IC50 [1] [nM] | IC90 [1] [nM] | Hap1 MTAP intact/deleted ratio [1] | IC50 [2] [nM] | IC50 (MTAP-deleted cell line) [nM]
C[C@H]1CC[C@H](c2ccc3nn(C4CC(C)(C)N(C)C(C)(C)C4)cc3c2)N(C(=O)C(=O)Nc2cncc3cn[nH]c23)C1 [Compound 47, 2-oxo-N-(1H-pyrazolo[4,3-c]pyridin-7-yl)-2-[(2R,5S)-5-methyl-2-[2-(1,2,2,6,6-pentamethyl-4-piperidyl)indazol-5-yl]-1-piperidyl]acetamide] | < 5 | < 75 | B (“B” indicates an IC50 ratio greater than or equal to 15 fold but lower than 30 fold) | 5 to 50 | < 100
C[C@H]1CC[C@H](c2ccc3sc(CN(C)C)nc3c2)N(C(=O)C(=O)Nc2cncc3[nH]ncc23)C1 [Compound 49, 2-((2R,5S)-2-(2-((dimethylamino)methyl)benzo[d]thiazol-5-yl)-5-methylpiperidin-1-yl)-2-oxo-N-(1H-pyrazolo[3,4-c]pyridin-4-yl)acetamide] | 5 to 50 | 75 to 125 | B (“B” indicates an IC50 ratio greater than or equal to 15 fold but lower than 30 fold) | > 50 | 100 to 1000
C[C@H]1CC[C@H](c2ccc3sc(C4CCN(C5COC5)CC4)nc3c2)N(C(=O)C(=O)Nc2cncc3[nH]ncc23)C1 [Compound 50, 2-((2R,5S)-5-methyl-2-(2-(1-(oxetan-3-yl)piperidin-4-yl)benzo[d]thiazol-5-yl)piperidin-1-yl)-2-oxo-N-(1H-pyrazolo[3,4-c]pyridin-4-yl)acetamide] | 5 to 50 | > 125 | B (“B” indicates an IC50 ratio greater than or equal to 15 fold but lower than 30 fold) | > 50 | 100 to 1000
C[C@H]1CC[C@H](c2ccc3nn(C4CCN(C)CC4)cc3c2)N(C(=O)C(=O)Nc2cncc3c(N)nccc23)C1 [Compound 51, N-(8-amino-2,7-naphthyridin-4-yl)-2-oxo-2-[(2R,5S)-5-methyl-2-[2-(1-methyl-4-piperidyl)indazol-5-yl]-1-piperidyl]acetamide] | 5 to 50 | > 125 | A (“A” indicates an IC50 ratio greater than or equal to 30 fold) | > 50 | 100 to 1000
C[C@H]1CC[C@H](c2ccc3sc(C45CCC(CC4)N(C)C5)nc3c2)N(C(=O)C(=O)Nc2cncc3cn[nH]c23)C1 [Compound 54, 2-((2R,5S)-5-methyl-2-(2-(2-methyl-2-azabicyclo[2.2.2]octan-4-yl)benzo[d]thiazol-5-yl)piperidin-1-yl)-2-oxo-N-(1H-pyrazolo[4,3-c]pyridin-7-yl)acetamide] | < 5 | < 75 | B (“B” indicates an IC50 ratio greater than or equal to 15 fold but lower than 30 fold) | 5 to 50 | < 100
C[C@H]1CC[C@H](c2ccc3sc([C@@H](C)CN(C)C)nc3c2)N(C(=O)C(=O)Nc2ccn3ccnc3c2)C1 [Compound 56, N-imidazo[1,2-a]pyridin-7-yl-2-oxo-2-[(2R,5S)-5-methyl-2-[2-[(^1R)-2-(dimethylamino)-1-methyl-ethyl]-1,3-benzothiazol-5-yl]-1-piperidyl]acetamide] | < 5 | 75 to 125 | B (“B” indicates an IC50 ratio greater than or equal to 15 fold but lower than 30 fold) | > 50 | < 100
C[C@H]1CC[C@H](c2ccc3sc(C4(CN(C)C)CC4)nc3c2)N(C(=O)C(=O)Nc2cncc3cn[nH]c23)C1 [Compound 60, 2-((2R,5S)-2-(2-(1-((dimethylamino)methyl)cyclopropyl)benzo[d]thiazol-5-yl)-5-methylpiperidin-1-yl)-2-oxo-N-(1H-pyrazolo[4,3-c]pyridin-7-yl)acetamide] | < 5 | < 75 | B (“B” indicates an IC50 ratio greater than or equal to 15 fold but lower than 30 fold) | > 50 | < 100
C[C@H]1CC[C@H](c2ccc3sc(CC4CCN(C)CC4)nc3c2)N(C(=O)C(=O)Nc2cncc3cn[nH]c23)C1 [Compound 61, 2-((2R,5S)-5-methyl-2-(2-((1-methylpiperidin-4-yl)methyl)benzo[d]thiazol-5-yl)piperidin-1-yl)-2-oxo-N-(1H-pyrazolo[4,3-c]pyridin-7-yl)acetamide] | < 5 | < 75 | B (“B” indicates an IC50 ratio greater than or equal to 15 fold but lower than 30 fold) | 5 to 50 | < 100
C[C@H]1CC[C@H](c2ccc3sc(C4CN(C)C4)nc3c2)N(C(=O)C(=O)Nc2cncc3cn[nH]c23)C1 [Compound 62, 2-((2R,5S)-5-methyl-2-(2-(1-methylazetidin-3-yl)benzo[d]thiazol-5-yl)piperidin-1-yl)-2-oxo-N-(1H-pyrazolo[4,3-c]pyridin-7-yl)acetamide] | < 5 | < 75 | B (“B” indicates an IC50 ratio greater than or equal to 15 fold but lower than 30 fold) | 5 to 50 | < 100
C[C@H]1CC[C@H](c2ccc3sc([C@H]4C[C@H](N(C)C)C4)nc3c2)N(C(=O)C(=O)Nc2cncc3cn[nH]c23)C1 [Compound 64, 2-((2R,5S)-2-(2-(3-(dimethylamino)cyclobutyl)benzo[d]thiazol-5-yl)-5-methylpiperidin-1-yl)-2-oxo-N-(1H-pyrazolo[4,3-c]pyridin-7-yl)acetamide] | < 5 | < 75 | B (“B” indicates an IC50 ratio greater than or equal to 15 fold but lower than 30 fold) | 5 to 50 | < 100
C[C@H]1CC[C@H](c2ccc3nn(C4CN(C)C4)cc3c2)N(C(=O)C(=O)Nc2cncc3cn[nH]c23)C1 [Compound 66, 2-((2R,5S)-5-methyl-2-(2-(1-methylazetidin-3-yl)-2H-indazol-5-yl)piperidin-1-yl)-2-oxo-N-(1H-pyrazolo[4,3-c]pyridin-7-yl)acetamide] | 5 to 50 | > 125 | A (“A” indicates an IC50 ratio greater than or equal to 30 fold) | > 50 | 100 to 1000
C[C@H]1CC[C@H](c2ccc3sc(C4CC(C)(C)N(C)C(C)(C)C4)nc3c2)N(C(=O)C(=O)Nc2ccn3ccnc3c2)C1 [Compound 67, N-(imidazo[1,2-a]pyridin-7-yl)-2-((2R,5S)-5-methyl-2-(2-(1,2,2,6,6-pentamethylpiperidin-4-yl)benzo[d]thiazol-5-yl)piperidin-1-yl)-2-oxoacetamide] | < 5 | < 75 | B (“B” indicates an IC50 ratio greater than or equal to 15 fold but lower than 30 fold) | 5 to 50 | < 100
C[C@H]1CC[C@H](c2ccc3ccccc3c2)N(C(=O)C(=O)Nc2cnc(N)c3cn[nH]c23)C1 [Compound 79, N-(4-amino-1H-pyrazolo[4,3-c]pyridin-7-yl)-2-((2R,5S)-5-methyl-2-(naphthalen-2-yl)piperidin-1-yl)-2-oxoacetamide] | < 5 | < 75 | A (“A” indicates an IC50 ratio greater than or equal to 30 fold) | 5 to 50 | < 100
